Assay results from ChEMBL document CHEMBL1201862, “PubChem BioAssay data set” (2004).
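Step 1: Grow cells in 96-well plates. Step 2: Expose to compound for 48 hours at 5 concentrations. Step 3: Interpolate endpoints linearly; if unreached, use highest concentration. GI50 = concentration required for 50% inhibition of growth.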 Calls of active or inactive are those of the source. Rule as the data show it: active = GI50 up to about 1.1 µM and inactive = higher.

Key:
Assay in all cases: NCI anticancer screen, dose series, 48 h
OVCAR-8 = tested on: OVCAR-8
HL-60 = tested on: HL-60
RPMI-8226 = tested on: RPMI-8226
SK-MEL-28 = tested on: SK-MEL-28
HCC 2998 = tested on: HCC 2998
PC-3 = tested on: PC-3
A549 = tested on: A549
U-251 = tested on: U-251
HT-29 = tested on: HT-29
EKVX = tested on: EKVX
M14 = tested on: M14
OVCAR-3 = tested on: OVCAR-3
SF-268 = tested on: SF-268
CAKI-1 = tested on: CAKI-1
Malme-3M = tested on: Malme-3M
NCI-H226 = tested on: NCI-H226
OVCAR-4 = tested on: OVCAR-4
K562 = tested on: K562

Measured: GI50

CC1(C)S[C@@H]2[C@H](NC(=O)[C@H](N)c3ccccc3)C(=O)N2[C@H]1C(=O)O [AMPICILLIN]
inactive: OVCAR-8 > 100 µM | HL-60 > 100 µM | RPMI-8226 > 100 µM | SK-MEL-28 > 100 µM | HCC 2998 > 100 µM | PC-3 > 100 µM | A549 > 100 µM | U-251 > 100 µM | HT-29 > 100 µM | EKVX > 100 µM | M14 > 100 µM | OVCAR-3 > 100 µM | SF-268 > 100 µM | CAKI-1 > 100 µM

Cc1sc(Nc2ccc(Nc3nc(-c4ccccc4)c(C)s3)cc2)nc1-c1ccccc1
inactive: Malme-3M > 100 µM | OVCAR-8 > 100 µM | NCI-H226 63.1 µM | OVCAR-4 > 100 µM | SK-MEL-28 > 100 µM | HCC 2998 16.9 µM | PC-3 16.6 µM | A549 30.1 µM | K562 18.6 µM | U-251 13.7 µM | HT-29 60 µM | EKVX > 100 µM | M14 61.2 µM | OVCAR-3 > 100 µM | SF-268 > 100 µM | CAKI-1 88.1 µM

CN1C(=O)C(=CNc2ccc(Cl)cc2Cl)C(=O)N(C)C1=O
inactive: Malme-3M > 100 µM | OVCAR-8 17.9 µM | NCI-H226 > 100 µM | RPMI-8226 > 100 µM | OVCAR-4 > 100 µM | HCC 2998 > 100 µM | PC-3 > 100 µM | A549 > 100 µM | K562 > 100 µM | U-251 > 100 µM | HT-29 > 100 µM | EKVX > 100 µM | M14 > 100 µM | OVCAR-3 > 100 µM | SF-268 > 100 µM | CAKI-1 > 100 µM

CCOC(=O)/C(=C/c1ccc(C#N)cc1)N(CC)CC
inactive: Malme-3M > 100 µM | OVCAR-8 > 100 µM | NCI-H226 > 100 µM | HL-60 > 100 µM | RPMI-8226 > 100 µM | OVCAR-4 > 100 µM | SK-MEL-28 > 100 µM | HCC 2998 > 100 µM | A549 > 100 µM | K562 > 100 µM | U-251 > 100 µM | HT-29 > 100 µM | EKVX > 100 µM | M14 > 100 µM | SF-268 > 100 µM | CAKI-1 > 100 µM

CCCCCCC(C)CC(CCCCCC)NCCOC(=O)c1ccc([N+](=O)[O-])cc1 (centres undefined)
inactive: Malme-3M 11.1 µM | OVCAR-8 5.66 µM | NCI-H226 13.9 µM | OVCAR-4 11.5 µM | HCC 2998 2.02 µM | A549 15.1 µM | U-251 11.1 µM | HT-29 4.04 µM | EKVX 8.71 µM | SF-268 13.8 µM

COc1ccc(Oc2cccc(/C=C3/C(=O)Nc4ccccc43)c2)cc1
inactive: Malme-3M 11.2 µM | OVCAR-8 16.9 µM | HL-60 3.05 µM | OVCAR-4 14 µM | SK-MEL-28 7.06 µM | HCC 2998 9.31 µM | PC-3 5.98 µM | A549 7.19 µM | K562 1.57 µM | U-251 1.91 µM | HT-29 3.73 µM | EKVX 10.9 µM | M14 11.9 µM | OVCAR-3 7.89 µM | SF-268 11.4 µM | CAKI-1 6.87 µM

Clc1ccc(C2SCc3nc4ccccc4n32)cc1Cl (centres undefined)
inactive: Malme-3M 18.8 µM | OVCAR-8 13.7 µM | NCI-H226 25.2 µM | HL-60 5.9 µM | RPMI-8226 11.4 µM | OVCAR-4 13.1 µM | SK-MEL-28 12.5 µM | A549 13.4 µM | K562 8.34 µM | U-251 16 µM | HT-29 15.1 µM | EKVX 14.4 µM | M14 13.2 µM | OVCAR-3 10.5 µM | SF-268 15.9 µM | CAKI-1 14.1 µM
